# Measurements reported in PMC11747885, “Potent inhibitors of the human RNA ligase Rlig1 highlights its role in RNA integrity maintenance under oxidative cellular stress” (Chemical Science, 2025).
# Where “and” joins values, the source holds several entries; their conditions need not be identical. Equal entries are not always repeated. Where two headings read alike, the source gives them in different places.
# Columns and labels:
# Rlig1-AMP = biological target: T1, Rlig1-AMP (Homo sapiens, UniProt Q8N999); test: FRET-based high-throughput screening of inhibitors for Rlig1-AMP; assay type: biochemical; conditions: for 1-D Distance: difference of raw data w/o and w enzyme; for Raw data [w Enyzm]: with enzyme; for Raw data [w/o Enzym]: without enzyme; for 1-D Distance.npi: MedChemExpress library
# T1 construct: made in house; host or cells: E. coli BL21 (DE3), pET15b-Rlig1
# T1 sequence (Q8N999 whole entry): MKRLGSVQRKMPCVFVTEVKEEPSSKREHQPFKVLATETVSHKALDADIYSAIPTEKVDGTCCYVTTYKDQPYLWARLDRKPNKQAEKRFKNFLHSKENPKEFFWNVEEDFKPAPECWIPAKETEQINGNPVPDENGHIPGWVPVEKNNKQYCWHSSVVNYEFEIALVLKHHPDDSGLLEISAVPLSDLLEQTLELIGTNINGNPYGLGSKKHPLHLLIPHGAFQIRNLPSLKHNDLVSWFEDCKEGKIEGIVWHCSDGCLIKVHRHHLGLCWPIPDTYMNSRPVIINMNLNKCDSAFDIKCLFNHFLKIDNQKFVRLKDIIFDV
# [1] = biological target: ATPase family AAA domain-containing protein 2 (ATAD2); design: method as in MedChemExpress; conditions: ref MedChemExpress; cited from earlier work
# [2] = ref MedChemExpress, cited from earlier work
# LTB4 receptor = biological target: LTB4 receptor; design: method as in MedChemExpress [1]; conditions: isolated human neutrophil cell membranes; ref MedChemExpress [1]; cited from earlier work
# IKr, Cav1.2, and Nav1.5 = tested on: IKr, Cav1.2, and Nav1.5; design: method as in MedChemExpress; conditions: ion channel activity; ref MedChemExpress; cited from earlier work
# [3] = biological target: 168 radioligand binding or enzymatic assays; design: method as in MedChemExpress; conditions: MDS Pharma, ref MedChemExpress, read-out: IC50 in all counterscreen assays; cited from earlier work
# DPP-4 = tested on: DPP-4; design: method as in MedChemExpress [1]; conditions: ref MedChemExpress [1]; cited from earlier work
# [4] = in DMSO; ref MedChemExpress; cited from earlier work
# [5] = design: method as in MedChemExpress; conditions: OGTT, oral 1 h prior to dextrose challenge, ref MedChemExpress, cited from earlier work
# all proteases tested = tested on: all proteases tested; design: method as in MedChemExpress; conditions: selectivity; ref MedChemExpress; cited from earlier work
# EBOV Zaire = conditions: ref MedChemExpress [1][2]; read-out: IC50 infectious EBOV Zaire; cited from earlier work
# Marburg (MARV) = conditions: ref MedChemExpress [1][2]; cited from earlier work
compound,measurement,setting,value
COc1cc(Cl)c(C(=O)N[C@@H](CN[C@H]2CC[C@@H](N)CC2)Cc2ccc(C#N)cc2)cc1-c1ccc(CN[C@H](C)c2ccc(C)cc2)o1 [BAY-850],1-D Distance,Rlig1-AMP; HTS hits,2218
same,Raw data [w Enyzm],Rlig1-AMP; HTS hits,10576
same,Raw data [w/o Enzym],Rlig1-AMP; HTS hits,12794
same,IC50,[1],166 nM
same,solubility,[2]; DMSO,62.5 mg/mL and 95.53 mM
same,solubility,[2]; H2O,< 0.1 mg/mL
CC(C)(c1ccc(O)cc1)c1ccc(OCc2cccc(COc3ccc(C(=N)N)cc3)c2)cc1.Cl [BIIL-260 (hydrochloride)],1-D Distance.npi,Rlig1-AMP; sheet HTS hits,102.737
same,1-D Distance,Rlig1-AMP; sheet HTS hits,216
same,Raw data [w Enyzm],Rlig1-AMP; sheet HTS hits,4623
same,Raw data [w/o Enzym],Rlig1-AMP; sheet HTS hits,4407
same,Ki,LTB4 receptor,1.7 nM
CS(=O)(=O)n1cc2c(n1)CN([C@H]1CO[C@H](c3cc(F)ccc3F)[C@@H](N)C1)C2 [Omarigliptin],1-D Distance,Rlig1-AMP; sheet HTS hits,1732
same,Raw data [w Enyzm],Rlig1-AMP; sheet HTS hits,9138
same,Raw data [w/o Enzym],Rlig1-AMP; sheet HTS hits,10870
same,IC50,"IKr, Cav1.2, and Nav1.5",> 30 µM
same,IC50,[3],> 10 µM
same,IC50,DPP-4,1.6 nM
same,"solubility, DMSO",[4],DMSO : 50 mg/mL (125.49 mM; Need ultrasonic)
same,reduction in glucose AUC,[5]; 0.01 mg/kg,7%
same,reduction in glucose AUC,[5]; 0.3 mg/kg,51%
same,IC50,all proteases tested,> 67 µM
CN(C)CCOc1ccc(/C(=C(/CCCl)c2ccccc2)c2ccccc2)cc1.O=C(O)CC(O)(CC(=O)O)C(=O)O [Toremifene (citrate)],1-D Distance.npi,Rlig1-AMP; sheet HTS hits,77.3877
same,1-D Distance,Rlig1-AMP; sheet HTS hits,1366
same,Raw data [w Enyzm],Rlig1-AMP; sheet HTS hits,9443
same,IC50,EBOV Zaire,70 nM
same,IC50,Marburg (MARV),2600 nM
